{"source": "patent US7776854B2", "about": "“Benzazole derivatives for the treatment of scleroderma” (Merck Serono SA, priority 2001, dated 2010)", "key": {"[1]": {"test_system": "bleomycin-induced lung fibrosis", "test": "Determination of bleomycin-induced body weight loss", "assay_type": "in vivo", "conditions": "C57BL/6 mice", "procedure": "The objective of the present Assay is to determine the loss of body weight of mice which is usually triggered by bleomycin-induced lung fibrosis.\n(§1) Female 10- to 12-week-old C57BL/6 wild-type mice were intratracheally instilled with bleomycin (3.75 U/kg) dissolved in 10 μl saline to induce the fibrosis in the lungs. The treatment with a test compound started on day 0 and was continued daily—from day 0 (1 hour before the bleomycin instillation) to day 17. The test compound was administered orally at different dosages. Control mice were intratracheally instilled with saline on day 0. The body weight loss was recorded on a daily basis and the results of the determination are graphically represented in FIG. 1."}, "[2]": {"test_system": "bleomycin-induced lung inflammation", "test": "Determination of bleomycin-induced pulmonary oedema (lung wet/dry weight difference)", "assay_type": "in vivo, mice", "procedure": "as §1\nLung fibrotic changes following instillation of bleomycin result from the infiltration of inflammatory cells like macrophages, lymphocytes and neutrophils into the lungs a well as an increase in pro-inflammatory cytokines such as TNFα. The pulmonary oedema is analyzed to determine whether a test compound affects the bleomycin-induced lung inflammation. What is determined is the difference wet/dry of the examined lungs, where high differences indicate a high degree of pulmonary oedema.\nMice were treated as described in Example 2. The test compound was compound (A) (i.e. 1,3-benzothiazol-2-yl(2-{[4-(morpholin-4-ylmethyl)benzyl]-oxy}pyrimidin-4-yl)aceto-nitrile). […] The lung dry and wet weight differences were calculated and graphically reported in FIG. 2. which illustrates the outcome of the assay for the test compound (A)."}, "[3]": {"test_system": "bleomycin-induced lung fibrosis", "test": "Determination of bleomycin-induced pulmonary fibrosis (histological scoring)", "assay_type": "in vivo, mice", "procedure": "as §1\nInjection of bleomycin in mice induces focal fibrotic lesions with thickened intra-alveolar septa, collapse of alveolar septa as well as massive infiltration of lymphocytes into the lung interstitium. Such focal fibrotic lesions are histologically determined on day 17 after bleomycin administration.\nMice were treated as described in Example 2. […] Morphological evaluation of bleomycin-induced lung inflammation and fibrosis was performed using a semiquantitative scoring method consisting in a visual evaluation of histological section photos in which the surface of the fibrotic part of the lung is evaluated compared to the total surface. […]"}, "[4]": {"test_system": "bleomycin-induced lung fibrosis", "test": "Determination of bleomycin-induced lung collagen content (hydroxyproline)", "assay_type": "in vivo, mice", "conditions": "7 mg/kg orally, day 17, p=0.009", "procedure": "as §1\nThe objective of the present assay is to determine the reduction in lung fibrosis by specifically measuring the hydroxyproline content in the lungs of bleomycin-treated mice. Hydroxyproline is an amino acid component necessary for the build-up of collagen. The quantification of hydroxyproline in the lung after collagen hydrolysis is therefore seen as a suitable indicator for lung collagen content.\nMice were treated as described in Example 2. At day 17 of instillation, the animals were euthanized, and both lungs were removed. Total lung collagen was determined by analysis of hydroxyproline. Briefly, lungs were homogenized in Tris-HCl, pH 7.6, with a Tissue Tearor followed by incubation in Amberlite overnight at 115° C. […] Samples were cooled for 10 min and read at 560 nm on spectrophotometer. […]"}}, "data": [{"smiles": "N#CC(c1ccnc(OCc2ccc(CN3CCOCC3)cc2)n1)c1nc2ccccc2s1", "note": "(stereo not shown) [test compound (A), 1,3-benzothiazol-2-yl(2-{[4-(morpholin-4-ylmethyl)benzyl]-oxy}pyrimidin-4-yl)acetonitrile]", "values": [{"measurement": "reduction of the loss of body weight induced by bleomycin", "setting": "[1]; 2 mg/kg orally daily, day 17", "result": "about 30%"}, {"measurement": "body weight course", "setting": "[1]; bleomycin instilled, oral daily treatment, day 5 to day 17, versus saline-treated mice", "result": "stabilization of their body weight"}, {"measurement": "pulmonary oedema (lung wet/dry weight difference) compared with saline-treated mice", "setting": "[2]; 2 mg/kg orally, day 17, p=0.016", "result": "significant reduction"}, {"measurement": "pulmonary oedema (lung wet/dry weight difference) compared with saline-treated mice", "setting": "[2]; 7 mg/kg orally, day 17, p=0.009", "result": "significant reduction"}, {"measurement": "bleomycin-induced lung fibrosis, histological scoring of fibrotic lesions compared with saline-treated mice", "setting": "[3]; 7 mg/kg orally, day 17, p=0.016", "result": "significantly reduced"}, {"measurement": "bleomycin-induced lung fibrosis, histological scoring of fibrotic lesions compared with saline-treated mice", "setting": "[3]; 20 mg/kg orally, day 17, p=0.009", "result": "significantly reduced"}, {"measurement": "lung hydroxyproline content compared with saline-treated mice", "setting": "[4]", "result": "significantly lower"}]}]}
